# Data from ChEMBL document CHEMBL1201862, “PubChem BioAssay data set” (2004).
# Active and inactive are the calls of the source.
# Legend:
# [1] = target: Peroxisome proliferator-activated receptor gamma/Nuclear receptor coactivator 1 (Homo sapiens, UniProt P37231); type: functional;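 further: agonist potency as compounds enhance coactivator SRC-1 recruitment to PPARgamma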
# cells [2] = type: functional, cell-based
# [3] = target: Peroxisome proliferator-activated receptor gamma/Nuclear receptor coactivator 2 (Homo sapiens, UniProt P37231); type: functional;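 further: agonist potency for raising coactivator recruitment to the receptor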
# [4] = target: Peroxisome proliferator-activated receptor gamma/Nuclear receptor coactivator 3 (Homo sapiens, UniProt P37231); type: functional;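 further: agonist potency for raising coactivator recruitment to the receptor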
# cells [5] = type: functional, cell-based; remark: listed apart in the source
# [6] = target: Voltage-dependent T-type calcium channel subunit alpha-1H (Homo sapiens, UniProt O95180); type: functional;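 further: channel activity triggered by adding a high calcium stimulation buffer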
# Coagulation factor XII = target: T1, Coagulation factor XII (Homo sapiens, UniProt P00748); type: functional;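 further: activated factor XIIa alpha cleaving a fluorogenic AMC peptide substrate; inhibitor potency from loss of enzyme activity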
# T1 sequence (P00748 whole entry): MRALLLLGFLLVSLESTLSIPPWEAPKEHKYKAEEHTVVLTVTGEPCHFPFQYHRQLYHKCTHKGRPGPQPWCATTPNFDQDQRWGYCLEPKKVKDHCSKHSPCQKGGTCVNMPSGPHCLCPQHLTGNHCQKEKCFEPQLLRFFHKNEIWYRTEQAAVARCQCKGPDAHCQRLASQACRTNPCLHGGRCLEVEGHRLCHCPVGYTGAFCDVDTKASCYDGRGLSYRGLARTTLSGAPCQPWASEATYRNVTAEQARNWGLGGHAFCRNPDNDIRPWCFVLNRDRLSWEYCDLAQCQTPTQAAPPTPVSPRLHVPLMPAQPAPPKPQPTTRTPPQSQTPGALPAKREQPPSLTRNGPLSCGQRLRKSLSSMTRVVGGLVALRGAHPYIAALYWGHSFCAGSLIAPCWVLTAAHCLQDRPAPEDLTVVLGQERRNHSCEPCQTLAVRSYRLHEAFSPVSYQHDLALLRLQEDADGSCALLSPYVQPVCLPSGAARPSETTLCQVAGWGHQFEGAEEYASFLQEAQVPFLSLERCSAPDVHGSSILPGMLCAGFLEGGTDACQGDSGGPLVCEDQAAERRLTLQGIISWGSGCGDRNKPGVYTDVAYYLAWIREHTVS
# Estrogen receptor beta = Estrogen receptor beta (Homo sapiens, UniProt Q92731); assay: blockers of SRC-3 recruitment to ERβ – biochemical, ELISA, streptavidin-HRP readout, orthogonal assay, confirmation (AID 1060)
# [7] = target: T2, COUP transcription factor 2 (Homo sapiens, UniProt P24468); assay: Luminescence-based cell-based high throughput dose response assay to identify inhibitors of COUP-TFII (NR2F2).; type: functional;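 further: HEK293 cells transiently cotransfected with COUP-TFII expression vector and reporter; luciferase reporter luminescence driven by COUP-TFII from the pX2-168 reporter plasmid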
# T2 sequence (P24468 whole entry): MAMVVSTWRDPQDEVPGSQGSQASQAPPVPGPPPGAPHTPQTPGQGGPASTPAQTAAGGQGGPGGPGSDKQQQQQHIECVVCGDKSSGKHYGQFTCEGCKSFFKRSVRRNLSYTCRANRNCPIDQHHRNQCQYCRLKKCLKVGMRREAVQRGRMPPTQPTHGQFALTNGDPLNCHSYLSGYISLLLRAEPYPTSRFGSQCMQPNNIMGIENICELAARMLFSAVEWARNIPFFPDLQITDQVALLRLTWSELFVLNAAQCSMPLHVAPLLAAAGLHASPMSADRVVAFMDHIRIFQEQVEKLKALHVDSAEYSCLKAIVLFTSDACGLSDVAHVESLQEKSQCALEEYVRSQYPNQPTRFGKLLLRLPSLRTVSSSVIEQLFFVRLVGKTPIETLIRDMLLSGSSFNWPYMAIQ
# [8] = HEK-293T viability loss after treatment – luminescence, T-cell screen hits, cytotoxicity control for TCR NF-kB inhibitor project, dose response (AID 489026); type: functional, cell-based;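 further: cells exposed to compound about 14 hours before the viability readout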
# [9] = NIH3T3 cell viability loss – ATP luminescence, mouse fibroblasts, counter-screen, dose response (AID 2010); type: functional, cell-based;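 further: cells exposed to compound for about 90 hours before reading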
# [10] = alpha-synuclein stem-loop luciferase translation blockers – H4 neuroglioma cells, luminescence, confirmation (AID 1988); type: functional, cell-based
# [11] = Trypanosoma cruzi growth suppression in host cells – NIH3T3 host cells, beta-gal luminescence, confirmation (AID 2044); type: functional, cell-based;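 further: intracellular parasites grown in NIH/3T3 mouse fibroblasts as host cells; luminescent beta-galactosidase reporter signal from transgenic T. cruzi replicating inside host cells; inhibitors lower the luminescence signal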
# [12] = luciferase reporter signal suppression in cells – H4 neuroglioma cells, luminescence, dose response (AID 1990); type: functional, cell-based
# INS1 = assay: INS-1E survival protection against cytokine death – cell-based, luminescence, retest, dose response (AID 449756); type: functional; settings: Rattus norvegicus;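 further: cell death triggered by IL-1 beta plus TNF-alpha plus IFN-gamma mixture; protective hits raise ATP signal compared with cytokine alone wells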
# [13] = Luminescence Cell-Based Dose Response HTS to Identify Inhibitors of 5'UTR Stem-Loop Driven Prion Protein mRNA Translation in H4 Neuroglioblastoma Cells. [Related pubchem assays: 1827 (Project Summary), 1813 (Primary HTS)]; type: functional
# [14] = target: DNA dC->dU-editing enzyme APOBEC-3G (Homo sapiens, UniProt Q9HC16); assay: Dose Response confirmation of small molecule APOBEC3G DNA Deaminase Inhibitors via a fluorescence-based single-stranded DNA deaminase assay. [Related pubchem assays (depositor defined):AID493012, AID493028]; type: functional
# HEK293 [15] = assay: cells; settings: Homo sapiens
# HEK293 [16] = assay: cells; settings: Homo sapiens; remark: listed apart in the source
# Caspase-6 = target: T3, Caspase-6 (Homo sapiens, UniProt P55212); assay: inhibition of CASP6 peptide cleavage – biochemical, VEID-R110 fluorescence, cherry-pick, dose response (AID 720632)
# T3 sequence (P55212 whole entry): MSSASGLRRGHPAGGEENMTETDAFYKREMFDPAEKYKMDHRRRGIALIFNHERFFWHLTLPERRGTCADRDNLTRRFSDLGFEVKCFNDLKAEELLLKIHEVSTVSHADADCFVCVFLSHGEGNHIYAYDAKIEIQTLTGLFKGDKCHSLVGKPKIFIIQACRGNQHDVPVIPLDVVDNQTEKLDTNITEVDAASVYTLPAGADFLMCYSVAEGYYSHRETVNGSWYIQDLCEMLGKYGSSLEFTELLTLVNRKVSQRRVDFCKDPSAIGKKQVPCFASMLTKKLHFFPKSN
# [17] = target: Voltage-gated N-type calcium channel alpha-1B subunit/Amyloid beta A4 precursor protein-binding family A member 1 (Homo sapiens, UniProt Q00975+Q02410); assay: disruptors of Mint-PDZ/N-type channel peptide interaction – biochemical, HTRF, set 2, SAR follow-up (AID 434980); type: functional
# [18] = OVCAR-3 cell viability loss – plate reader, dry powder samples, PAX8 inhibitor project, dose response (AID 743044); type: functional, cell-based
# Paired box protein Pax-8 = Paired box protein Pax-8 (Homo sapiens, UniProt Q06710); assay: PAX8 transcriptional activity inhibition in RMG-I – RMG-I cells, luciferase, cherry-pick, dose response (AID 687027); type: functional, cell-based;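 further: luciferase reporter driven by Pax8 target thyroperoxidase promoter measured by SteadyGlo luminescence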
# [19] = OVCAR8 cell viability loss – plate reader, dry powder samples, PAX8 project, dose response (AID 743197); type: functional, cell-based; settings: OVCAR-8
# Peroxisome proliferator-activated receptor gamma/Nuclear receptor coactivator 3, sequence (P37231 whole entry): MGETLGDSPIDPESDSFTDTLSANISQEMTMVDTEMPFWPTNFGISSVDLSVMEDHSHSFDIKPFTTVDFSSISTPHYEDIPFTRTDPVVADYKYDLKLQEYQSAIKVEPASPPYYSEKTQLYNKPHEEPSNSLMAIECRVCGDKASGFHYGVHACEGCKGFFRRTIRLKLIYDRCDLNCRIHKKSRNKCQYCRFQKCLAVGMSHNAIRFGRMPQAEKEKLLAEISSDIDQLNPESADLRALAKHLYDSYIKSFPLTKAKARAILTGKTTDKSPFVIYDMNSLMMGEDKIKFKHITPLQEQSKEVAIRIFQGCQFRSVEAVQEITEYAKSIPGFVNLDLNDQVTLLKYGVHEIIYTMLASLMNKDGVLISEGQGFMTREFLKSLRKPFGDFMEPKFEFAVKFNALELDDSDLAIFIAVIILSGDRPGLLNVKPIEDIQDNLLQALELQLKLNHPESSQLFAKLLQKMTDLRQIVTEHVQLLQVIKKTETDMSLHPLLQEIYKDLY
# Peroxisome proliferator-activated receptor gamma/Nuclear receptor coactivator 3, sequence (Q9Y6Q9 whole entry, further chain): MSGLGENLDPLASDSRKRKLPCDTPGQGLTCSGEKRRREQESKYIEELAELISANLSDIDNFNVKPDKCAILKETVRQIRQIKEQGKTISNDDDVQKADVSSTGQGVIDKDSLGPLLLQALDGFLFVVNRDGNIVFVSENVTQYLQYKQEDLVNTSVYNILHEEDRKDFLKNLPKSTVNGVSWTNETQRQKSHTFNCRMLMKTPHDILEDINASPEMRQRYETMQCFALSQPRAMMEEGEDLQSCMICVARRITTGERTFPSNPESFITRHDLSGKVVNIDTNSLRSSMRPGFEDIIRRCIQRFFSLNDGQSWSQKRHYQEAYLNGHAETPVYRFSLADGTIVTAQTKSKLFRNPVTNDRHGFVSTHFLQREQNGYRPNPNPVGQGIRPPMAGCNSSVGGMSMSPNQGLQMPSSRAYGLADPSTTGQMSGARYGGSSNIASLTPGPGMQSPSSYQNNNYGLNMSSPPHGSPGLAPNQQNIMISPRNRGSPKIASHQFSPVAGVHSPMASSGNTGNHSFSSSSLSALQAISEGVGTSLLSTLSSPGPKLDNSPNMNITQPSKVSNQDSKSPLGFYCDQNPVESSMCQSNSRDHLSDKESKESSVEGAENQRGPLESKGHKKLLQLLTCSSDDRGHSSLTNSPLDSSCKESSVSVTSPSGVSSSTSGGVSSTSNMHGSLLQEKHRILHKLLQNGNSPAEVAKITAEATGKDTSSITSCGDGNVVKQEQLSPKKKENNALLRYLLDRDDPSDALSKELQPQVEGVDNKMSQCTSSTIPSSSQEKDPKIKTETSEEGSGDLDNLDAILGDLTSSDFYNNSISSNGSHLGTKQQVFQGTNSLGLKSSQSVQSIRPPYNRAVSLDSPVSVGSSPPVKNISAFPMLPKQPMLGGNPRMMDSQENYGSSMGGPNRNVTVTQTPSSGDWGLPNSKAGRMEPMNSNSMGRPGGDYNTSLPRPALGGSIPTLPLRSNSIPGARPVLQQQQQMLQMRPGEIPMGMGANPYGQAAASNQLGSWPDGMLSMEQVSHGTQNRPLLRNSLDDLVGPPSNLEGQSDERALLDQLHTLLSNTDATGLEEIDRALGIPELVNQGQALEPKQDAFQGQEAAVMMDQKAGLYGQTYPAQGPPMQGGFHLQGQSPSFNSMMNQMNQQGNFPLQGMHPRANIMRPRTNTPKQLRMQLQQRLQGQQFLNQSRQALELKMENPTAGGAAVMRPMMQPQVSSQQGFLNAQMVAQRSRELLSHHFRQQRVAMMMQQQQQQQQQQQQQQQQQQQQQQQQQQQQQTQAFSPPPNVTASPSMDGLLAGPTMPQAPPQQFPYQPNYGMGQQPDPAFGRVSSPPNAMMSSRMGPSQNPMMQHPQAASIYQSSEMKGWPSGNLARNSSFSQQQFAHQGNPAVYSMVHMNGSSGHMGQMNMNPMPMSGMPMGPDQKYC
# Peroxisome proliferator-activated receptor gamma/Nuclear receptor coactivator 2, sequence (P37231 whole entry): as the sequence (P37231 whole entry) above
# Peroxisome proliferator-activated receptor gamma/Nuclear receptor coactivator 2, sequence (Q15596 whole entry, further chain): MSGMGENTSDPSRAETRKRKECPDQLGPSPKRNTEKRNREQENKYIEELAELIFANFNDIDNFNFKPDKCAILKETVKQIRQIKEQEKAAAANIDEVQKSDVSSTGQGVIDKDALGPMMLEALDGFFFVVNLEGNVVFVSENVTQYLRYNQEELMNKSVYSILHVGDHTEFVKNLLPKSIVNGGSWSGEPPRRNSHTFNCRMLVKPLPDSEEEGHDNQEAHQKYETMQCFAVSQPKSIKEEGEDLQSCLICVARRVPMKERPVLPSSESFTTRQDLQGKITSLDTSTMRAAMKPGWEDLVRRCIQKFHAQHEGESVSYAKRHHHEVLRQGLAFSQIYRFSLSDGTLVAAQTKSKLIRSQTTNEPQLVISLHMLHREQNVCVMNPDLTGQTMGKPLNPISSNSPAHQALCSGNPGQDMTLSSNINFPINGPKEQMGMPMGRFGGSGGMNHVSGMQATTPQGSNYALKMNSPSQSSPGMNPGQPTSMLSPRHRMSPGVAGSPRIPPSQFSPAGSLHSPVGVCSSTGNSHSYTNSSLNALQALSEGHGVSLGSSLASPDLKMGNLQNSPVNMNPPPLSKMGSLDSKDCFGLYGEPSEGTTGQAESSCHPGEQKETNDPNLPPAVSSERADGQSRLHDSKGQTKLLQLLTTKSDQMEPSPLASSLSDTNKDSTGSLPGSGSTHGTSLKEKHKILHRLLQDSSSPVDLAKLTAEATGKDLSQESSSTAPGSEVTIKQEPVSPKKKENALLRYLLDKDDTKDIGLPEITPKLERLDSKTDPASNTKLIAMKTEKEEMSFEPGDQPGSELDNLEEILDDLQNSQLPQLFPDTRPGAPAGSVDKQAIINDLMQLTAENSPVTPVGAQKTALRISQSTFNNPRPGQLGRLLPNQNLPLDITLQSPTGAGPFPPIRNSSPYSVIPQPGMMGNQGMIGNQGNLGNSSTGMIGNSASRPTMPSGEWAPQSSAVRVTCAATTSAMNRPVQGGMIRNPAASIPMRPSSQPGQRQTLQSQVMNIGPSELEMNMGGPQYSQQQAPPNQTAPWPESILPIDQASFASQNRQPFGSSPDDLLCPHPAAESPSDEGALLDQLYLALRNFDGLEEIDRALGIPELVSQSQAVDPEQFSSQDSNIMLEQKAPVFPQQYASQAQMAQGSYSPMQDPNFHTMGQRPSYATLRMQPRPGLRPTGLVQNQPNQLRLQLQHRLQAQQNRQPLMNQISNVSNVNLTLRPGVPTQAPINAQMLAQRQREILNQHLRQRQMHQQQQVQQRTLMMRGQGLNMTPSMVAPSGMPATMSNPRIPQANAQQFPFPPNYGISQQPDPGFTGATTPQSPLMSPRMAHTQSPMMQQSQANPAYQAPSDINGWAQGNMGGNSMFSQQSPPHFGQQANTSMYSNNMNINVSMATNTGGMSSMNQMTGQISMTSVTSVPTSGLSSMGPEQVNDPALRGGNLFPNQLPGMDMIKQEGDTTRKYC
# DNA dC->dU-editing enzyme APOBEC-3G, sequence (Q9HC16 whole entry): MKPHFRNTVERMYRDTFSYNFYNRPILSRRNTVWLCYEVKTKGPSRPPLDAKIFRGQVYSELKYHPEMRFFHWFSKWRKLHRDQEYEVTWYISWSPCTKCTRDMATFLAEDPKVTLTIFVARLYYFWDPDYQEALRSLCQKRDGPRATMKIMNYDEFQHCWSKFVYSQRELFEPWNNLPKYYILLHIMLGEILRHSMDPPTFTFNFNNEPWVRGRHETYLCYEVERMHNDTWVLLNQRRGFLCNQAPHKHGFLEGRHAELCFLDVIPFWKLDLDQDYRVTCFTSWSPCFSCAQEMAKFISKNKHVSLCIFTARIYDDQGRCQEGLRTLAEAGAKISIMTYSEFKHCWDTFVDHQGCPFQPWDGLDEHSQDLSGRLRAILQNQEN
# Paired box protein Pax-8, sequence (Q06710 whole entry): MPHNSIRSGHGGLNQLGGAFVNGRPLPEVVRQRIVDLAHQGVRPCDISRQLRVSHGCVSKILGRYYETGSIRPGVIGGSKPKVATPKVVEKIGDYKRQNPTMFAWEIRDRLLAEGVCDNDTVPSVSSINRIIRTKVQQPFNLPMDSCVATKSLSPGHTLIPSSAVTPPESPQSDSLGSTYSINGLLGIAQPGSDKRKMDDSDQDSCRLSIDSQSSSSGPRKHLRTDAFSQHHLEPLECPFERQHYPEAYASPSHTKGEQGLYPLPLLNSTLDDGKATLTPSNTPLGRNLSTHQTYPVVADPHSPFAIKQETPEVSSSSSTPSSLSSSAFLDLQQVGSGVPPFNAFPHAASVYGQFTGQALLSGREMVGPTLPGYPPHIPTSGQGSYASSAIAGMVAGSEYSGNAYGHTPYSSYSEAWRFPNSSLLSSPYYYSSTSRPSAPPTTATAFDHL
smiles,measurement,setting,value
COc1cc(C2CC(=O)N3CN(Cc4ccccc4)CSC3=C2C#N)ccc1OCc1ccccc1 (centres undefined),EC50,[1],> 79.4 µM (not active)
same,EC50,cells [2],40.3 µM (active)
same,EC50,[3],> 79.4 µM (not active)
same,EC50,[4],> 79.4 µM (not active)
same,EC50,cells [5],> 350 µM (not active)
CC(C)(C)n1ncc2c(=O)n(CC(=O)Nc3ccc(Cl)cc3)cnc21,EC50,[6],4.08 µM (active)
CCOc1ccc(N(CC(=O)Nc2cc(C)ccc2C)S(=O)(=O)c2c(C)nc(O)nc2O)cc1,IC50,Coagulation factor XII,> 50 µM (inactive)
N#Cc1cc2c(nc1SCc1ccccc1)CCC2,EC50,[1],41 µM (not active)
same,IC50,Estrogen receptor beta,0.0254 µM (not active)
same,EC50,[3],45.2 µM (not active)
same,EC50,[4],56.6 µM (not active)
CCC1=NN(C(=O)Cc2ccc([N+](=O)[O-])cc2)C(O)(C(F)(F)F)C1 (centres undefined),IC50,Coagulation factor XII,> 50 µM (inactive)
CCO/C(O)=C1\C(C)=NC(=S)N(C(C)=O)C1c1ccc(OC)c(OC)c1 (centres undefined),IC50,Coagulation factor XII,> 50 µM (inactive)
N=c1ccn(CC(=O)c2ccc(-c3ccccc3)cc2)cc1,IC50,[7],9.15 µM (active)
same,IC50,[8],> 80 µM (inactive)
same,EC50,[9],> 60 µM (not active)
same,EC50,[10],7.33 µM (active)
same,EC50,[11],2.01 µM (active)
same,EC50,[12],9.17 µM (active)
same,AC50,INS1,1.46 µM (active)
same,EC50,[13],12.3 µM (active)
Nc1ccccc1SC(C[N+](=O)[O-])c1ccccc1 (centres undefined),IC50,[14],28.2 µM (active)
O=C(CSc1nnc(CNC(=O)c2cccs2)o1)Nc1cccc(C(F)(F)F)c1,EC50,[6],4.46 µM (active)
COc1ccc(C2C=C(C34CC5CC(CC(C5)C3)C4)N=C(S)N2)cc1OC (centres undefined),EC50,HEK293 [15],> 59.6 µM (inactive)
same,EC50,HEK293 [16],> 59.6 µM (inactive)
O=C(O)c1cc([N+](=O)[O-])cc2c1C=Cc1ccccc1O2,AC50,Caspase-6,37.5 µM (active)
CCC(C)NC(=O)CSc1ncnc2sccc12 (centres undefined),IC50,Coagulation factor XII,> 50 µM (inactive)
CCOC(=O)C1=NN(c2cccc(Cl)c2)C2=NC(C)=C(C(=O)OC)C(c3cccs3)N12 (centres undefined),EC50,[1],> 79.4 µM (not active)
same,EC50,[3],> 79.4 µM (not active)
same,EC50,[4],> 79.4 µM (not active)
CC(C)(C)c1ccc(CNC(=O)c2cc(-c3ccco3)nc3ccccc23)cc1,IC50,[17],39.5 µM (active)
O=C(N[C@@H]1C[C@H]1c1ccccc1)c1cc(-c2ccco2)nc2ccccc12,IC50,[17],46.4 µM (active)
C[C@@H]1CCCCO[C@@H](CN(C)C(=O)Nc2ccc(C(F)(F)F)cc2)[C@H](C)CN([C@H](C)CO)C(=O)c2cc(NS(=O)(=O)c3ccc(Cl)cc3)ccc2O1,AC50,[18],27.8 µM (active)
same,AC50,Paired box protein Pax-8,3.25 µM (active)
same,AC50,[19],32 µM (active)
Cc1noc(C)c1S(=O)(=O)Nc1ccc2c(c1)C(=O)N([C@H](C)CO)C[C@H](C)[C@@H](CN(C)C(=O)Nc1ccc(C(F)(F)F)cc1)OCCCC[C@H](C)O2,AC50,[18],< 0.26 µM (active)
same,AC50,Paired box protein Pax-8,9.4 µM (active)
same,AC50,[19],> 70 µM (inactive)
COc1cc(/C=N/n2c(S)nnc2-c2ccccc2)cc(OC)c1O,IC50,[14],> 100 µM (inactive)
